Holding throughout (experiment): inhibition of tumour cell growth, NCI panel, 48 h
In test [1] the test system is HCC-2998 colon.
For test [2], the system named is HT29 colon.
The test system of test [3] is IGROV1 ovarian.
The test system of test [4] is M14 melanoma.
Test [5] deals with NCI-H226 lung.
Test [6] deals with NCI-H522 lung.
The subject of test [7] is OVCAR-3 ovarian.
Test [8] deals with SNB-75 CNS.
Test [9] has as its system U251 CNS.
For test [10], the system named is UO-31 renal.

SMILES strings stand for the structures. Values joined by “and” are separate entries in the source; they are usually repeats but may differ in a detail not shown here. Equal entries are not always repeated.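 Method: 48-hour compound exposure of cells in 96-well plates, five concentrations, linear interpolation of endpoints. GI50 = concentration required for 50% inhibition of growth. TGI: concentration producing complete growth inhibition.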 Some results are limits rather than exact numbers.

For the compound `COc1ccc(N=N/C(=N\NC(=O)c2cc(Br)ccc2O)c2ccc(N(CCC#N)CCC#N)cc2OC)cc1`, the GI50 in test [1] was 28.7 µg/mL; in [2], 40.9 µg/mL; in [3] it was 39.6 µg/mL; in [4], 83.7 µg/mL; in test [5], 24.2 µg/mL; in test [6], 40.1 µg/mL. The GI50 was 51.4 µg/mL in test [7], 27.6 µg/mL in [8], more than 150 µg/mL in test [9] and 59.5 µg/mL in test [10]. For the same compound, the TGI was 66.5 µg/mL in test [1]; 118 µg/mL in test [2]; more than 150 µg/mL in test [3]; more than 150 µg/mL in [4]; 88.1 µg/mL in [5]; 141 µg/mL in [6]. The TGI is more than 150 µg/mL in test [7], 86.8 µg/mL in test [8], more than 150 µg/mL in [9] and more than 150 µg/mL in test [10].

Take `CC(=O)NC(CS)C(=O)O` (centres undefined): the GI50 in test [1], in test [2], in [4], in test [5], in [6] and in test [7] was more than 100 µM throughout. The GI50 in test [8], in [9] and in test [10] was more than 100 µM throughout. Moreover, the TGI in test [1] is > 100 µM and 50800 µM; in [2], > 100 µM and 86700 µM; in test [3], 16600 µM; in [4], > 100 µM and 35500 µM; in test [5] it was > 100 µM and 45000 µM; in test [6] it was > 100 µM and 46300 µM. Also, the TGI in test [7] is > 100 µM and 58500 µM; in test [8] it was > 100 µM and 89800 µM; in [9] it was more than 100 µM; in test [10], > 100 µM and 45400 µM.

In the case of `Cn1cnc([N+](=O)[O-])c1Sc1nc2ccccc2o1`, the TGI stood at 24.9 µM in test [1]; 12.9 µM in [2]; 27.7 µM in test [3]; 24.4 µM in test [4]; 30.9 µM in [5]; 4.42 µM in test [6]. In addition, the TGI in test [7] was found to be 14.7 µM; in test [8], 32.9 µM; in [9], 26.2 µM; in test [10], 24.8 µM.

As to `COc1cc(N2CCN(C(C)C)CC2)ccc1Nc1nc(Nc2ccc(F)cc2C(=O)NCC(O)CO)c2cc[nH]c2n1` (centres undefined), the GI50 in [1] is 7.21 µM; in test [2], 1.25 µM; in test [3], 11.1 µM; in test [4], 12 µM; in test [5], 5.04 µM; in test [6], 4.79 µM. Besides, the GI50 is more than 25 µM in test [7], 13.3 µM in test [8], 5.22 µM in [9] and more than 25 µM in test [10]. Besides, the TGI was more than 25 µM in test [1]; more than 25 µM in test [2]; more than 25 µM in test [3]; more than 25 µM in test [4]; 19.9 µM in [5]; more than 25 µM in test [6]. For the same compound, the TGI in test [7], in test [8], in [9] and in test [10] was more than 25 µM in each case.

For `Cc1ccccc1C=NC12CC3CC(CC(C3)C1)C2`, the TGI in [1], in test [2], in [3], in test [4], in [5] and in test [6] was more than 100 µM in each case. For the same compound, the TGI in test [7], in test [8], in test [9] and in test [10] was more than 100 µM in each case.

Turning to `Cc1ccc(/C=C(/C#N)n2nnc3ncccc32)cc1`, the GI50 in test [1] was 3.37 µM; in [2], 2.08 µM; in test [3], 2.28 µM; in test [4], 2.89 µM; in test [5], 4.46 µM; in test [6], 0.255 µM. Besides, the GI50 was 0.801 µM in test [7], 2.98 µM in test [8], 3.41 µM in test [9] and 2.01 µM in [10]. The TGI came out at 12.2 µM in test [1]; 11.5 µM in [2]; 21.5 µM in [3]; 17.7 µM in [4]; 28 µM in [5]; 0.878 µM in test [6]. Besides, the TGI is 3.74 µM in test [7], more than 100 µM in [8], 14.1 µM in test [9] and 12.4 µM in [10].

Consider `CC12CC/C(=N/NC(N)=O)C3C1CCCC32`, for which the TGI in test [1], in test [2], in test [3], in [4], in test [5] and in test [6] was more than 100 µM in each case. Further, the TGI in test [7], in [8], in [9] and in [10] was more than 100 µM each time.
